From ChEMBL document CHEMBL1122718, “Benzylamines: synthesis and evaluation of antimycobacterial properties” (1984)

Tested on: Mycobacterium tuberculosis
Experiment: Minimum inhibitory concentration (MIC) against Mycobacterium tuberculosis H 37 Ra
Assay type: functional

Question: Which MIC does the source give for Cl.NCc1cc(F)cc(F)c1 here?
Answer: The MIC was 57.6 µg/mL.

Question: With CC(C)NCc1cccc(Cl)c1.Cl as the compound, how does the MIC read?
Answer: Its MIC is > 256 µg/mL.

Question: How did the MIC turn out when CCCCNCc1cccc([N+](=O)[O-])c1.Cl was run?
Answer: The MIC was > 256 µg/mL.

Question: How did the MIC turn out when Cl.NCc1cccc(I)c1 was run?
Answer: The MIC was 179 µg/mL.

Question: Which MIC does the source give for CCCCNCc1ccccc1Cl.Cl here?
Answer: Its MIC is > 256 µg/mL.

Question: For CCCNCc1cccc(I)c1.Cl, which MIC is on record?
Answer: The MIC was 256 µg/mL.

Question: CCCCNCc1ccc(C(F)(F)F)cc1.Cl was tested. Which MIC did it give?
Answer: The MIC was > 256 µg/mL.

Question: CCCCCNCc1cccc(C#N)c1.Cl was tested. Which MIC did it give?
Answer: Its MIC is 76.8 µg/mL.

Question: Which MIC does the source give for COc1ccc(CN)cc1.Cl here?
Answer: The MIC was > 256 µg/mL.

Question: How did the MIC turn out when CCCCNCc1ccc(Br)cc1.Cl was run?
Answer: Its MIC is > 256 µg/mL.

Question: For CCNCc1ccccc1Br.Cl, which MIC is on record?
Answer: Its MIC is > 256 µg/mL.

Question: How did the MIC turn out when CNCc1ccc(Cl)cc1.Cl was run?
Answer: Its MIC is > 256 µg/mL.

Question: CCNCc1cc(F)cc(Cl)c1.Cl was tested. Which MIC did it give?
Answer: The MIC was 32 µg/mL.

Question: How did the MIC turn out when Cl.NCc1ccc(Cl)cc1Cl was run?
Answer: Its MIC is > 256 µg/mL.

Question: For Cl.NCc1cccc([N+](=O)[O-])c1, which MIC is on record?
Answer: The MIC was 179 µg/mL.

Question: For CNCc1ccc(C(F)(F)F)cc1.Cl, which MIC is on record?
Answer: Its MIC is > 256 µg/mL.

Question: With CCCNCc1cc(F)cc(Cl)c1.Cl as the compound, how does the MIC read?
Answer: Its MIC is 25.6 µg/mL.

Question: Which MIC does the source give for Cl.NCc1ccc(Cl)c(C(F)(F)F)c1 here?
Answer: Its MIC is > 256 µg/mL.

Question: For Cl.NCc1c(Cl)cccc1Cl, which MIC is on record?
Answer: Its MIC is > 256 µg/mL.

Question: With CCCCCNCc1ccccc1.Cl as the compound, how does the MIC read?
Answer: Its MIC is 154 µg/mL.

Question: With CCCCNCc1cc(Cl)cc(Cl)c1.Cl as the compound, how does the MIC read?
Answer: The MIC was 64 µg/mL.

Question: For Cl.N#Cc1cccc(CN)c1, which MIC is on record?
Answer: The MIC was 128 µg/mL.

Question: CCCNCc1cccc(Cl)c1.Cl was tested. Which MIC did it give?
Answer: The MIC was 17.9 µg/mL.

Question: With CNCc1cc(F)cc(Cl)c1.Cl as the compound, how does the MIC read?
Answer: The MIC was 19.2 µg/mL.

Question: How did the MIC turn out when CCCCNCc1cc(Cl)ccc1Cl.Cl was run?
Answer: The MIC was > 256 µg/mL.

Question: CCNCc1ccc(OC)cc1.Cl was tested. Which MIC did it give?
Answer: The MIC was > 256 µg/mL.

Question: How did the MIC turn out when CCCCCCCNCc1cc(Cl)cc(Cl)c1.Cl was run?
Answer: The MIC was 154 µg/mL.

Question: Which MIC does the source give for CC(C)NCc1cccc([N+](=O)[O-])c1.Cl here?
Answer: The MIC was > 256 µg/mL.

Question: CCCCNCc1cccc(Br)c1.Cl was tested. Which MIC did it give?
Answer: Its MIC is 38.4 µg/mL.

Question: How did the MIC turn out when CCNCc1ccc(Cl)c(C(F)(F)F)c1.Cl was run?
Answer: Its MIC is > 256 µg/mL.

Question: For CCCNCc1ccccc1.Cl, which MIC is on record?
Answer: Its MIC is 51.2 µg/mL.

Question: Which MIC does the source give for CCCCNCc1cccc(C(F)(F)F)c1.Cl here?
Answer: The MIC was > 256 µg/mL.

Question: CNCc1cc(F)cc(F)c1.Cl was tested. Which MIC did it give?
Answer: Its MIC is 32 µg/mL.

Question: With CCNCc1cccc(C(F)(F)F)c1.Cl as the compound, how does the MIC read?
Answer: Its MIC is > 256 µg/mL.

Question: With CNCc1c(Cl)cccc1Cl.Cl as the compound, how does the MIC read?
Answer: The MIC was > 256 µg/mL.

Question: With CNCc1cc(Cl)cc([N+](=O)[O-])c1.Cl as the compound, how does the MIC read?
Answer: Its MIC is 128 µg/mL.

Question: Which MIC does the source give for CCCCNCc1ccc(Cl)c(C(F)(F)F)c1.Cl here?
Answer: Its MIC is > 256 µg/mL.

Question: Which MIC does the source give for CNCc1ccc(Br)cc1.Cl here?
Answer: Its MIC is > 256 µg/mL.

Question: Cl.NCc1cc(Cl)ccc1Cl was tested. Which MIC did it give?
Answer: Its MIC is 76.8 µg/mL.

Question: For CC(C)NCc1cccc(C(F)(F)F)c1.Cl, which MIC is on record?
Answer: The MIC was > 256 µg/mL.

Question: Which MIC does the source give for Cl.NCc1cc(F)cc(Cl)c1 here?
Answer: Its MIC is 32 µg/mL.

Question: With Cl.NCc1ccccc1 as the compound, how does the MIC read?
Answer: Its MIC is 76.8 µg/mL.

Question: CNCc1cccc([N+](=O)[O-])c1.Cl was tested. Which MIC did it give?
Answer: Its MIC is 256 µg/mL.

Question: Which MIC does the source give for CCCCCNCc1cccc(F)c1.Cl here?
Answer: The MIC was 51.2 µg/mL.

Question: For CNCc1ccc(OC)cc1.Cl, which MIC is on record?
Answer: Its MIC is > 256 µg/mL.

Question: CCCNCc1ccc(Cl)c(C(F)(F)F)c1.Cl was tested. Which MIC did it give?
Answer: Its MIC is > 256 µg/mL.

Question: For CNCc1ccc(Cl)c(C(F)(F)F)c1.Cl, which MIC is on record?
Answer: The MIC was > 256 µg/mL.

Question: How did the MIC turn out when CCCNCc1cccc(C#N)c1.Cl was run?
Answer: The MIC was 76.8 µg/mL.

Question: With Cl.NCc1cc(Cl)cc(Cl)c1 as the compound, how does the MIC read?
Answer: The MIC was 20.4 µg/mL.

Question: For CCCCNCc1c(Cl)cccc1Cl.Cl, which MIC is on record?
Answer: The MIC was > 256 µg/mL.

Question: CCNCc1cccc(C#N)c1.Cl was tested. Which MIC did it give?
Answer: The MIC was 102 µg/mL.

Question: How did the MIC turn out when CCNCc1ccccc1.Cl was run?
Answer: Its MIC is 205 µg/mL.

Question: How did the MIC turn out when Cl.NCc1ccc(Cl)c(Cl)c1 was run?
Answer: The MIC was > 256 µg/mL.

Question: For CCNCc1cccc(Cl)c1.Cl, which MIC is on record?
Answer: Its MIC is 25.6 µg/mL.

Question: CCCCCNCc1cccc(Cl)c1.Cl was tested. Which MIC did it give?
Answer: Its MIC is 51.2 µg/mL.

Question: How did the MIC turn out when CCCNCc1ccc(Cl)cc1Cl.Cl was run?
Answer: Its MIC is > 256 µg/mL.

Question: With CCCNCc1cccc(Br)c1.Cl as the compound, how does the MIC read?
Answer: Its MIC is 51.2 µg/mL.

Question: How did the MIC turn out when CCNCc1cc(Cl)ccc1Cl.Cl was run?
Answer: Its MIC is > 256 µg/mL.

Question: How did the MIC turn out when CNCc1cc(Cl)ccc1Cl.Cl was run?
Answer: Its MIC is > 256 µg/mL.

Question: Which MIC does the source give for CCCNCc1cc(Cl)cc(Cl)c1.Cl here?
Answer: The MIC was 20.4 µg/mL.

Question: For CCNCc1cc(F)cc(F)c1.Cl, which MIC is on record?
Answer: Its MIC is 44.8 µg/mL.

Question: With CCCCNCc1cccc(Cl)c1.Cl as the compound, how does the MIC read?
Answer: The MIC was 64 µg/mL.

Question: How did the MIC turn out when CC(C)NCc1cccc(F)c1.Cl was run?
Answer: The MIC was > 256 µg/mL.

Question: With CCNCc1cccc([N+](=O)[O-])c1.Cl as the compound, how does the MIC read?
Answer: Its MIC is > 256 µg/mL.

Question: How did the MIC turn out when CCNCc1ccc(C(F)(F)F)cc1.Cl was run?
Answer: Its MIC is > 256 µg/mL.

Question: For CCNCc1c(Cl)cccc1Cl.Cl, which MIC is on record?
Answer: The MIC was > 256 µg/mL.

Question: With CCCCCNCc1cccc([N+](=O)[O-])c1.Cl as the compound, how does the MIC read?
Answer: The MIC was > 256 µg/mL.

Question: How did the MIC turn out when CNCc1cccc(I)c1.Cl was run?
Answer: The MIC was 154 µg/mL.

Question: Which MIC does the source give for CCCCCNCc1cccc(C(F)(F)F)c1.Cl here?
Answer: Its MIC is > 256 µg/mL.

Question: CCNCc1cc(Cl)cc([N+](=O)[O-])c1.Cl was tested. Which MIC did it give?
Answer: Its MIC is 102 µg/mL.

Question: With CC(C)NCc1cccc(C#N)c1.Cl as the compound, how does the MIC read?
Answer: The MIC was > 256 µg/mL.
